Laboratory results: patent US7049321B2, “Methods and pharmaceutical compositions for treatment of central and peripheral nervous system disorders and compounds useful therefor” (Israel Institute for Biological Research, priority 2002, dated 2006)
Entries after “also recorded” stand apart in the source; their conditions may differ.

Key:
human M1 = biological target: T1, human M1 (Homo sapiens, UniProt P11229); assay: Binding study, M1 (human); conditions: 10 μm
T1 sequence (P11229 1-460): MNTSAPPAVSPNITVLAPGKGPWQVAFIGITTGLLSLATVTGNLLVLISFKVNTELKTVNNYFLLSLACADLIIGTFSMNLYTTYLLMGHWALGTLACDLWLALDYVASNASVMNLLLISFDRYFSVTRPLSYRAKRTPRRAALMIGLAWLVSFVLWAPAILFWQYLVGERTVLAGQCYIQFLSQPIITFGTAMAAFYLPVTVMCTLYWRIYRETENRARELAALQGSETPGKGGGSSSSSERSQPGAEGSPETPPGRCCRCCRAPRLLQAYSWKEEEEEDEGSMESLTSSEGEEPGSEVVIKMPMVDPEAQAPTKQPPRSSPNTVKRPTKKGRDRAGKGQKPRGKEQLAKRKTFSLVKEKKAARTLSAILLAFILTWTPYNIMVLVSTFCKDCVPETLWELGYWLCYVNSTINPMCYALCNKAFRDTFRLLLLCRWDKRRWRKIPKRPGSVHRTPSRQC

M3 (human) = M3 (human) (Homo sapiens, UniProt P20309); assay: PI hydrolysis in cells transfected with human M3; type: cell-based; parameters: expressed in transfected cells
trihexyphenidyl rats = assay: Passive avoidance in trihexyphenidyl-treated rats; type: in vivo, Wistar rats; conditions: 0.03 mg/kg, po, 72 hrs delay; DDW 93.1±29.0
CPY2D6 = CPY2D6 (Homo sapiens, UniProt P10635); assay: Cytochrome P450 inhibition, CYP2D6; type: in vitro ADME; conditions: up to 10 μM
Experimental: (§1) Cytochrome P450 activity can be an indicator for potential drug-drug interactions. AF292 was evaluated in a microtiter plate assay for P450 inhibition.

[1] = Cardiac electrophysiology and haemodynamics in awake dogs; type: in vivo, Beagle dogs; conditions: 5 mg/kg orally
Experimental: (§2) • 1. Astemizole (human ether-a-go-go related gene (HERG) Channel) Binding Assay. […] Isolated Guinea Pig Right Atrium (atrial fibrillation). […] Effects of AF292 (dose 5 mg/kg orally) on cardiac electrophysiological, cardio-haemodynamic in instrumented, awake dogs. Healthy trained and chronically instrumented female Beagle dogs of varying age and ranging in body weight from 9.4 to 12 kg, were used for recording of the cardiovascular parameters: heart rate, diastolic and systolic blood pressure, pressure rate product, LV dp/dt max, LV dp/dt max/pd, LV dp/dt min, cardiac output, stroke volume, systemic vascular resistance and the ECG parameters (PQ-, QRS-, QT-, QTcBazett-(QTcB), QTcFridericia-(QTcF) and QTcVan de Water-(QTcVdW) interval duration and QT-dispersion. During the last 18 hours prior to the experiments, the dogs had no access to food. Water was available ad libitum. At the beginning of each experiment, control values of the various parameters were recorded for at least 30 min. Thereafter, 5 mg/kg of AF292 (n=4) or the corresponding volume of the solvent (n=4) was administered orally by gavage. The various haemodynamic parameters were recorded continuously for 4 hours thereafter.

M5 mAChR = biological target: T2, M5 mAChR (Homo sapiens, UniProt P08912); assay: Arachidonic acid (AA) release, M5; type: cell-based
T2 construct: expressed in transfected cells

CYP3A4 = CYP3A4 (Homo sapiens, UniProt P08684); assay: Cytochrome P450 inhibition, CYP3A4; type: in vitro ADME; conditions: up to 10 μM
Experimental: as §1

hERG-encoded channel = hERG-encoded channel (Homo sapiens, UniProt Q12809); assay: Astemizole (HERG channel) binding assay
Experimental: as §2

[2] = pKa and free-base fraction of AF267B; conditions: pH=7.35 of CSF, calculated from pKa
Experimental: (§4) This calculation was based on the brain weight (2 gr) vs. total plasma volume (14 ml).

AF64A-injected rats = assay: Morris water maze in AF64A-injected rats; type: in vivo, Sprague-Dawley rats
Experimental: AF64A or saline-injected (6 months old) Sprague-Dawley rats were tested in the Morris Water Maze (MWM) task. The paradigm used assesses spatial learning abilities in a reference memory regimen, and involves training (days 1–4), transfer test (Probe trial—day 4, 3 min following the last training trial) and reversal test (day 5).
Drugs and PBS were administered once a day for 5 days before starting the behavioral testing, and then for the duration of the 5-day experiment, 30 min before testing.
The three measures, escape latency, path length and swimming speed were analyzed by MANOVA, followed by simple main effects contrast analysis.

[3] = tested on: adrenergic, benzodiazepine, dopamine, GABA, glutamate, glycine, histamine, nicotinic, serotonin sites, ChAT, GAD, MAO-A, MAO-B; assay: Binding panel of other receptors and enzymes (AF267B)
β-catenin = β-catenin stabilization in rat hippocampal neurons; type: cell-based
Experimental: (§3) This study was performed in rat hippocampal primary cell cultures using the methods described by Garrido J L et al. (FASEB J 2002; 16:1982).

rat hippocampal neurons = assay: Survival, morphology and apoptosis of hippocampal neurons exposed to Aβ; type: cell-based
Experimental: as §3

Sequence of M3 (human) (P20309 whole entry): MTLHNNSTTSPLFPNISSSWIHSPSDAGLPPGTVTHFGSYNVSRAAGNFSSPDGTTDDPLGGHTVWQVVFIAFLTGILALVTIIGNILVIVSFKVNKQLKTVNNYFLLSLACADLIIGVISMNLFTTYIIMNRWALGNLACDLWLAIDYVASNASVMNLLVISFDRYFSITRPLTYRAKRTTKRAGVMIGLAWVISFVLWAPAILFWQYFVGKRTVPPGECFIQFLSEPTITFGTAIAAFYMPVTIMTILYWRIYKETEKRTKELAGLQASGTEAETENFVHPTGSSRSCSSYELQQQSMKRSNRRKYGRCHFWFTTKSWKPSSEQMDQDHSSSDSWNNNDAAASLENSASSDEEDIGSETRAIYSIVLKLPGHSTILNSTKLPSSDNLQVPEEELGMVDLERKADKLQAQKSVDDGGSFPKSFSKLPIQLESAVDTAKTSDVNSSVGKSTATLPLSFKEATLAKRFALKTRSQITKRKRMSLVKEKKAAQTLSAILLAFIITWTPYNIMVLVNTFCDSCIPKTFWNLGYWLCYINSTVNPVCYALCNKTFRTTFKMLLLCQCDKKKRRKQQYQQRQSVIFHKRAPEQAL
T2 sequence (P08912 whole entry): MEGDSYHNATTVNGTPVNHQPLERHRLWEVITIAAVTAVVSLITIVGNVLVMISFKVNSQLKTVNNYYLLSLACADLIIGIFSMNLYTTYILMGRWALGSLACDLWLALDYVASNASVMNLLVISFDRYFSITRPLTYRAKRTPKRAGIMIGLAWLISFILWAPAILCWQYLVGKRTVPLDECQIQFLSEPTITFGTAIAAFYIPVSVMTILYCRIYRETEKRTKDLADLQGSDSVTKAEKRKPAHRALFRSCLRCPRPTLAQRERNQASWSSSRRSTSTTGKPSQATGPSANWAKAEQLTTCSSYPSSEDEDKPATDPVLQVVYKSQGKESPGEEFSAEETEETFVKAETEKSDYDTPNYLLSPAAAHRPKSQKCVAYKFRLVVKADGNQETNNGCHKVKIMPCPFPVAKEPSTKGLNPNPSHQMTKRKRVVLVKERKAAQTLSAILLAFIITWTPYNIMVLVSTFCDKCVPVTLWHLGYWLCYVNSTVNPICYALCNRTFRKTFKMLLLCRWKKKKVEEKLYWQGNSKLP
Sequence of CPY2D6 (P10635 whole entry): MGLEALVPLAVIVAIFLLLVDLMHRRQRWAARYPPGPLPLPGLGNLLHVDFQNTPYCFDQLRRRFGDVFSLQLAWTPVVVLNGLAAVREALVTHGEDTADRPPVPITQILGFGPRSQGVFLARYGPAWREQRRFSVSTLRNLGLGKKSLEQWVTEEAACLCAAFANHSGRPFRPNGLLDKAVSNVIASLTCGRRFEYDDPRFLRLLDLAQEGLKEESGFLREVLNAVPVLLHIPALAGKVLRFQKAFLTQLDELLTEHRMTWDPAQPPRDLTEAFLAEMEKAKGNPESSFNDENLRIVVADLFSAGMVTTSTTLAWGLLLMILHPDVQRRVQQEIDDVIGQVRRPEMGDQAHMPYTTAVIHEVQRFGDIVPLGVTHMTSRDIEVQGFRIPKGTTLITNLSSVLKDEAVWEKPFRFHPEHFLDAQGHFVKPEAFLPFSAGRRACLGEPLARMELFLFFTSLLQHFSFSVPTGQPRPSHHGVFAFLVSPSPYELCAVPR
Sequence of CYP3A4 (P08684 whole entry): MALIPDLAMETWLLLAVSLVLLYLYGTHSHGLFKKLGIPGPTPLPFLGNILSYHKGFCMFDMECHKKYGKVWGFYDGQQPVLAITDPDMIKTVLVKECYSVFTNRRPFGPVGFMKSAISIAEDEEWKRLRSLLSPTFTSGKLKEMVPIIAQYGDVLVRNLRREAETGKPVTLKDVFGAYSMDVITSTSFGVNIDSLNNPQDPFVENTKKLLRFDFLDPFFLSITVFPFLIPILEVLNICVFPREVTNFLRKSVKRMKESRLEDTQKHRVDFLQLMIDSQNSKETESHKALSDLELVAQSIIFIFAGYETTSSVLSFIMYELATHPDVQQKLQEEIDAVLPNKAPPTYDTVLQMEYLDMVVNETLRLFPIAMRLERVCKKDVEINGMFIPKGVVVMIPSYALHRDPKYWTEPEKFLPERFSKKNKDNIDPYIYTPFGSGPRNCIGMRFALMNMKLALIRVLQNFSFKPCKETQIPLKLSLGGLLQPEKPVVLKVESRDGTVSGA
Sequence of hERG-encoded channel (Q12809 whole entry): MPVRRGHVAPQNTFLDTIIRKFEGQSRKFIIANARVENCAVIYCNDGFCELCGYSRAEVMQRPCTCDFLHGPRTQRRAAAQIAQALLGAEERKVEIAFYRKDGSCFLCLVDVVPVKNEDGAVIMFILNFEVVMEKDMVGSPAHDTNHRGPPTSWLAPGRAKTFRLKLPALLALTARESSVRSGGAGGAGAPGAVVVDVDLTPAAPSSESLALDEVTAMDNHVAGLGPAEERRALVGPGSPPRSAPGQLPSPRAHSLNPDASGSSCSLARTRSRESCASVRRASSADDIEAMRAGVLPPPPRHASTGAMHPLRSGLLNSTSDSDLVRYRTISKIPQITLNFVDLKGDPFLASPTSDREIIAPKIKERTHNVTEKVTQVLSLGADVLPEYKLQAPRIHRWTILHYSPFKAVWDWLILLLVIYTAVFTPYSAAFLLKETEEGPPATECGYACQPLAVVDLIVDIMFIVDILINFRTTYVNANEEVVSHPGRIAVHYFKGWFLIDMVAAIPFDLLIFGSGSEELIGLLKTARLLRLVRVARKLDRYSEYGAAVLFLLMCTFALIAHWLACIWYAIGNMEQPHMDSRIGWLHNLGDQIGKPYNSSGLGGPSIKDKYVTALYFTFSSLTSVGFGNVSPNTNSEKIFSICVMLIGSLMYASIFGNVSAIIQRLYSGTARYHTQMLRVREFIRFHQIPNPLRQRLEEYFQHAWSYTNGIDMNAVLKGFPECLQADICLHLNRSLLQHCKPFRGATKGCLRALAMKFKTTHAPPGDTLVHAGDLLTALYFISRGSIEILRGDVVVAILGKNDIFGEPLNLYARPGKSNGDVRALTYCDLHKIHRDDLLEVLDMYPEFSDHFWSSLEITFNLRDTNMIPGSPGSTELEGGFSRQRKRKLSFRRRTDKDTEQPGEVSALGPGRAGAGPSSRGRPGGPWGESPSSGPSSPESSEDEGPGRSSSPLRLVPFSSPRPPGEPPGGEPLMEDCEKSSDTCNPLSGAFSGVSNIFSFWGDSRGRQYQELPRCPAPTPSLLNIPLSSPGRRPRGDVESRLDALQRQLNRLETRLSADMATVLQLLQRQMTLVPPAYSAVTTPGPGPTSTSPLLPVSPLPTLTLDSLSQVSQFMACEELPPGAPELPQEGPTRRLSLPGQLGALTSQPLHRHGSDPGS
Experimental for physchem: as §4

SMILES: CC[C@@H]1SC2(CCNCC2)NC1=O [AF292, (S)-2-Ethyl-1-thia-4,8-diaza-spiro[4.5]decan-3-one]
- Binding, % (human M1): 55%
- PI turnover vs. carbachol, M3 (M3 (human); human M3): No activity; also recorded: PI., AA: M3 mAChR: Not active as agonist
- Kb (M3 (human); read-out: pKb, M3 antagonist (converted)): 660 nM
- Retention latency (trihexyphenidyl rats): 225.9 ± 36 s
- Inhibition of CPY2D6 (CPY2D6): did not induce significant inhibition
- Hemodynamic and ECG parameters [1]: no statistically significant and relevant effect
- AA release, M5 mAChR, agonist activity (M5 mAChR): inactive as an agonist; also recorded: PI, AA: M5 mAChR - no effect as agonist
- Inhibition of CYP3A4 (CYP3A4): did not induce significant inhibition
- [3H]-Astemizole binding inhibition (hERG-encoded channel): inactive

SMILES: CC[C@@H]1SC2(CCN(C)CC2)NC1=O [AF267B, (S)-2-ethyl-8-methyl-1-thia-4,8-diaza-spiro[4.5]decan-3-one]
- % of compound in free base form [2]: 26.2%
- Reversal test (AF64A-injected rats; 1 mg/kg): tendency for improvement
- Training, escape latency (AF64A-injected rats; 1 mg/kg): tendency for improvement
- Reversal test (AF64A-injected rats; 3 mg/kg): tendency for impairment
- Training performance (AF64A-injected rats; 3 mg/kg): tended to impair performance
- Learning (training) (AF64A-injected rats; 0.3, 1, 3 mg/kg po): no significant effect on learning
- Probe trial, spatial bias (escape latency) (AF64A-injected rats; all doses): complete spatial bias
- pKa (physchem): 7.8
- Binding to panel [3]: no binding at all
- soluble β-catenin level (β-catenin; 1 μM): 100%
- nuclear β-catenin vs control (β-catenin; 1 μM, Aβ1–40 (5 μM)): 140%
- soluble β-catenin level (β-catenin; 10 μM): 300%
- soluble β-catenin level (β-catenin; 100 μM): 350%
- Aβ-induced degradation of soluble β-catenin (β-catenin; 100 μM, Aβ1–40 (5 μM)): this degradation was prevented
- Protection of hippocampal neurons from Aβ1–40 (rat hippocampal neurons; 10 μM, Aβ1–40 (5 μM)): > 90%
- Aβ1–40-induced apotosis (rat hippocampal neurons; 10 μM, Aβ1–40 (5 μm)): to the control level
- Survival and morphology of hippocampal neurons, compound alone (rat hippocampal neurons; 0.5–50 μM): does not affect the survival and morphology
- Neurites after Aβ1–40 (immunofluorescence) (rat hippocampal neurons; Aβ1–40 (5 μM)): protected the neurons
